The results in this text go back to publication PMC4015918, “Conjugation to a SMAC mimetic potentiates sigma-2 ligand induced tumor cell death in ovarian cancer” (Molecular Cancer, 2014).

The subject of one assay is SKOV3-Luc xenografts. The assay is described as follows: Intraperitoneal SKOV3-Luc xenograft model of ovarian cancer (bioluminescence imaging, survival). Type of assay: in vivo, SCID mice. Conditions: for Tumor response by bioluminescence signal intensity during treatment: start 7 days after inoculation, first week onward; for Median survival: daily i.p. for 3 weeks, 10 mice per group followed, vehicle 74 days. The text has this:
Figure 6 SW IV-134 is a potent single-agent cancer drug in a peritoneal mouse xenograft model of ovarian cancer. (A) Female SCID mice were inoculated intraperitoneally with 5 × 10^6 SKOV3-Luc cells. Treatment was initiated with intraperitoneal injections of SW43, SW IV-134, or vehicle control 7 days after tumor cell inoculation, and continued for a total of 3 weeks. Mice were imaged once a week during the treatment period. Change in bioluminescence photon flux during treatment in each experimental arm (n = 15) was evaluated. Bioluminescent signals at each time point were averaged per treatment group (mean ± SEM). Significant differences were noted between vehicle vs. SW IV-134 and SW43 vs. SW IV-134 (p < 0.0097, one-way ANOVA). (B) Bioluminescent images at the end of the treatment (day 21) of one representative mouse per treatment arm (n = 15). […] (C) Kaplan-Meier survival analysis. At the end of the 3 week treatment, 5 mice from each experimental group were subjected to necropsy. The remaining 10 mice from each treatment group were followed until death to examine overall survival (p < 0.0108, Log-rank test).
All studies were performed in accordance with an animal protocol approved by the Washington University Institutional Animal Care Facility. Female severe combined immunodeficient mice (SCID) were purchased from Taconic Farms (Hudson, NY) at age 6 weeks. SKOV3-Luc cells (5 × 10^6) were inoculated intraperitoneally and mice were randomized 7 days later into one of the three treatment groups according to their baseline luciferase activity employing bioluminescence imaging (BLI). For bioluminescence imaging, mice were injected intraperitoneally with 150 μg/g D-luciferin (Biosynth, Naperville, IL) in PBS, anesthetized with 2.5% isoflurane, and imaged with a charge-coupled device (CCD) camera-based bioluminescence imaging system (IVIS 100; Caliper, Hopkinton, MA; exposure time 300 seconds, binning 16, field of view 12, f/stop 1, open filter).
In vivo experiments were conducted with 15 mice per treatment group. Treatment involved daily intraperitoneal injections with 90 μL of SW43 (7.5 mM stock), SW IV-134 (7.5 mM stock), or vehicle-only (25% cremophor in H2O) for 3 weeks. Tumor burden was monitored by bioluminescence imaging once a week during the treatment period. At the end of the treatment, 5 mice were randomly removed per treatment group and submitted for necropsy to the Washington University Department of Comparative Medicine. Blood samples were collected by intracardiac withdrawal prior to necropsy for chemistry and hematology work-up. In addition, various key organs were harvested for gross and histopathological examination. The remaining 10 mice from each treatment group were followed over time to examine overall survival. For survival studies, actual death or poor physical condition/large tumor size meeting criteria for euthanasia, constituted a death event.

The test system of the next assay is TNFα. The assay is described as follows: TNFα ELISA of cell culture supernatants. Type of assay: cell-based. Conditions: SKOV3 conditioned medium, 1 μM and 3 μM. How it is done:
Figure 5 SW IV-134 induces activation of the TNFα-dependent extrinsic death pathway. (A) Quantitative real-time PCR analysis of TNFα mRNA expression was done on RNA samples derived from SKOV3 cells treated with SW IV-134 (1 μM and 3 μM) for indicated time periods. All values were normalized to a GAPDH internal control (p < 0.0001, one-way ANOVA). (B) SKOV3 cells were treated with SW IV-134 (1 μM and 3 μM) and cell-culture supernatants were collected at 4, 12, and 24 hours after treatment, and subsequently examined by anti-TNFα ELISA according to manufacturer’s instructions (p < 0.0001, one-way ANOVA). (C) SKOV3 cells were treated with SW IV-134 at indicated doses either alone or in the presence of anti-TNFα blocking antibody for 18 hours. Cell viability was determined as described in the experimental methods (p < 0.019, Student’s t-test).
SKOV3 cells were treated with SW IV-134 (1 μM and 3 μM). Cell culture supernatants were collected at 4, 12, and 24 hours after treatment. Medium was collected, floating cells were removed by centrifugation at 1200 × g for 5 minutes, and samples were frozen at -20°C until analysis. TNFα ELISA was performed using a quantitative high sensitivity sandwich immunoassay from eBioscience (San Diego, CA) as per the manufacturer’s instructions.
For orientation: In an ELISA, binding on a coated surface is turned into a signal by an enzyme label.

For the next assay, the system named is NF-қB (p65). The assay is described as follows: Western blot for phosphorylation of NF-қB (p65). Conditions: SKOV3 cells, 10 μM, 4 hours. Type of assay: cell-based. The method, then: (§1) Figure 4 SW IV-134 engages in SMAC-dependent pathway activation. (A) SKOV3 cells were treated with vehicle only (Ctrl.), SW43 (10 μM), and SW IV-134 (10 μM) for 4 hours and cell lysates were subjected to Western blot analysis using antibodies against XIAP, cIAP-1, cIAP-2, NF-қB and NIK. While XIAP seems unaffected under the conditions used, cIAP-1 and cIAP-2 proteins are readily undetectable shortly post treatment. SW IV-134 treatment also leads to accumulation of NF-қB inducing kinase (NIK) and activation of NF-қB pathway. (B) SKOV3 cells were treated with SW IV-134 at the indicated doses either alone or in the presence of proteasome inhibitor MG132 (20 μM) for 18 hours. […] Cell viability was determined as described in the experimental methods (p < 0.011, Student’s t-test).
(§2) Cells were lysed in radioimmunoprecipitation assay buffer [50 mM Tris, 150 mM sodium chloride, 1.0 mM EDTA, 1% Nonidet P40, and 0.25% SDS (pH 7.0)], supplemented with complete protease inhibitor cocktail (Roche, Mannheim) and phosphatase inhibitor cocktail 1 (Sigma Chemical Co., St. Louis, MO). The protein concentration was determined using a BioRad Dc protein assay kit (Bio-Rad Laboratories, Hercules, CA). Lysates containing 30 μg of protein were run on a 12% polyacrylamide gel and transferred to a PVDF membrane (Bio-Rad Laboratories, Hercules, CA). […]
For orientation: A western blot detects proteins with antibodies after separation by electrophoresis.

Another assay relates to cIAP-1 and cIAP-2. The assay is described as follows: Western blot for cIAP-1 and cIAP-2 levels. It counts as cell-based. Conditions: 10 μM. The method, then: as §1, §2
Setting [1] is: daily i.p. 90 μL of 7.5 mM stock.

As to `COc1ccc(C)cc1NC(=O)OC1CC2CCCC(C1)N2CCCCCCCCCCN` (stereo not drawn) [SW43, reference compound], the “Tumor response by bioluminescence signal intensity during treatment” value with SKOV3-Luc xenografts (setting [1]) is given as “signal intensity increased”. The compound further had a Median survival in the assay with SKOV3-Luc xenografts of 76.5 days.

Regarding `COc1ccc(C)cc1NC(=O)OC1CC2CCCC(C1)N2CCCCCCCCCCN[C@@H](C)C(=O)N[C@H](C(=O)N1CCC[C@H]1C(=O)N[C@@H]1CCCc2ccccc21)C(C)(C)C` (stereo partly drawn) [SW IV-134], the TNFα protein secretion entry with TNFα (4 hours) was “undetectable”; in the assay with TNFα (12 hours), “mildly elevated”; in the assay on TNFα (24 hours), “highest levels”. In addition, the “Activation (phosphorylation) of NF-қB (p65)” value in the assay with NF-қB (p65) is given as “activation (phosphorylation) of NF-қB (p65)”. Moreover, the “Bioluminescence signal intensity at the end of the 3 week treatment” value in the assay with SKOV3-Luc xenografts (daily i.p. 90 μL of 7.5 mM stock, day 21) was “significantly lower than both the SW43 and the vehicle-only treatment groups”. Also, in the assay on SKOV3-Luc xenografts (setting [1]), the “Tumor response by bioluminescence signal intensity during treatment” value is on record as “Tumor regression was evident by the end of the first week of treatment”. Further, the Median survival with SKOV3-Luc xenografts turned out to be 86.5 days. In addition, the “Extension of median survival” value with SKOV3-Luc xenografts (intraperitoneal metastatic model) is 10 days. Besides, the cIAP-1 protein level entry with cIAP-1 and cIAP-2 (SKOV3, Hey A8 and Hey A8 MDR cells, 2 hours) is “readily undetectable shortly after treatment”. Moreover, the “cIAP-1 and cIAP-2 protein levels” value in the assay on cIAP-1 and cIAP-2 (SKOV3 cells, 4 hours) is “rapid loss of both cIAP-1 and cIAP-2”.
